Measured values: ChEMBL document CHEMBL5046231, “Modulation of Naturally Occurring Linear Dipeptide Chirality to Reduce the Affinity for Oligopeptide Transporter 1 and Increase Intestinal Stability for an Enhanced Colon-Targeting Effect in the Treatment of Inflammatory Bowel Disease: An Application of trans-4-l-Hydroxyprolyl-l-serine” (J Med Chem, 2022)
Calls of active or inactive are those of the source. The rule behind the calls is not given here.

Assays:
[1] = Metabolic stability in DSS-induced C57BL/6 inflammatory mouse model colonic flora homogenate assessed as half life measured up to 12 hrs by HPLC analysis; assay type: ADME; conditions: C57BL/6, mouse
[2] = Chemical stability in 0.1 M HCl at pH 1.2 assessed as half life measured up to 12 hrs by HPLC analysis; assay type: physicochemical
Mus musculus [3] = experiment: Anti-colitis activity against DSS-induced colitis in C57BL/6 mouse model assessed as increase in colon length at 25 mg/kg, po administered via gavage twice daily for 10 days; assay type: functional, organism-based; conditions: time 10.0 day
[4] = AUC (0 to 6 hrs) in DSS-induced colitis C57BL/6 mouse model at 25 mg/kg, po measured up to 6 hrs by UPLC-MS/MS analysis; assay type: ADME, organism-based; parameters: route oral, dose 25 mg/kg, time <=6; conditions: in vivo
[5] = Metabolic stability in healthy C57BL/6 mouse liver assessed as half life measured up to 12 hrs by HPLC analysis; assay type: ADME, tissue-based
[6] = Stability in simulated intestinal fluid at pH 6.8 assessed as half life measured up to 12 hrs by HPLC analysis; assay type: ADME
[7] = Stability in simulated gastric fluid at pH 1.2 assessed as half life measured up to 12 hrs by HPLC analysis; assay type: ADME
[8] = Tmax in DSS-induced colitis C57BL/6 mouse model at 25 mg/kg, po measured up to 6 hrs by UPLC-MS/MS analysis; assay type: ADME, organism-based; conditions: in vivo
[9] = Metabolic stability in DSS-induced C57BL/6 mouse jejunum assessed as half life measured up to 12 hrs by HPLC analysis; assay type: ADME, tissue-based
[10] = Chemical stability in acetate buffer at pH 4.5 assessed as half life measured up to 12 hrs by HPLC analysis; assay type: physicochemical
[11] = Chemical stability in phosphate buffer at pH 6.8 assessed as half life measured up to 12 hrs by HPLC analysis; assay type: physicochemical
[12] = Cmax in DSS-induced colitis C57BL/6 mouse model at 25 mg/kg, po measured up to 6 hrs by UPLC-MS/MS analysis; assay type: ADME, organism-based; parameters: route oral, dose 25 mg/kg, time <=6; conditions: in vivo
[13] = target: T1, Solute carrier family 15 member 1 (Homo sapiens, UniProt P46059); experiment: Substrate activity at PEPT1 in human Caco-2 cells assessed as inhibition of Gly-Sar substrate uptake by UPLC-MS/MS analysis; assay type: cell-based; conditions: for inhibition (INH): human, caco-2
T1 sequence (P46059 whole entry): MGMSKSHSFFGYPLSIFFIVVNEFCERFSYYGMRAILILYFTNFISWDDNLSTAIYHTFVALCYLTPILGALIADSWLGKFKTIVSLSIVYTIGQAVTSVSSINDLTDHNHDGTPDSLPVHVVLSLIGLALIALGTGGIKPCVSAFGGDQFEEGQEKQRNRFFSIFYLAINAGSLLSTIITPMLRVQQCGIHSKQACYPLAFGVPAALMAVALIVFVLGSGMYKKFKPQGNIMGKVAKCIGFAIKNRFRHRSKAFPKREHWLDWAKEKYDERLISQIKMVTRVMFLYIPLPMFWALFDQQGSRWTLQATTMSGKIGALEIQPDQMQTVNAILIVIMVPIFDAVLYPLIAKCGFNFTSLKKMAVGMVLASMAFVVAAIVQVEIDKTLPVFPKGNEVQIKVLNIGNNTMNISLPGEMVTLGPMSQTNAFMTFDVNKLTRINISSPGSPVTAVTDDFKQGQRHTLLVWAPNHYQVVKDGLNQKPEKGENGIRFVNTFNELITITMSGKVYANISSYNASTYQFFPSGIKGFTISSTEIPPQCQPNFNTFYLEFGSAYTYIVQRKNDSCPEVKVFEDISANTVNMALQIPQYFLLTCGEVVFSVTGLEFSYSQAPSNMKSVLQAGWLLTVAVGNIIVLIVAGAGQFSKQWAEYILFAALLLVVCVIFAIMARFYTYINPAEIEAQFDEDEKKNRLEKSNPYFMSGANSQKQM

[14] = Metabolic stability in healthy C57BL/6 mouse jejunum assessed as half life measured up to 12 hrs by HPLC analysis; assay type: ADME, tissue-based
[15] = Metabolic stability in healthy C57BL/6 mouse plasma assessed as half life measured up to 12 hrs by HPLC analysis; assay type: ADME, cell-free
[16] = Metabolic stability in healthy C57BL/6 mouse colonic flora homogenate assessed as half life measured up to 12 hrs by HPLC analysis; assay type: ADME
[17] = Metabolic stability in healthy C57BL/6 mouse colon assessed as half life measured up to 12 hrs by HPLC analysis; assay type: ADME, tissue-based
[18] = Chemical stability in phosphate buffer at pH 7.2 assessed as half life measured up to 12 hrs by HPLC analysis; assay type: physicochemical
[19] = Stability in human Caco-2 cells homogenate assessed as half life measured up to 12 hrs by HPLC analysis; assay type: ADME, cell-based; conditions: Caco-2 cell homogenate
Mus musculus [20] = experiment: Anti-colitis activity against DSS-induced colitis in C57BL/6 mouse model assessed as assessed as recovery of body weight at 25 mg/kg, po administered via gavage twice daily for 10 days; assay type: functional, organism-based; conditions: time 10.0 day
[21] = Metabolic stability in DSS-induced C57BL/6 mouse colon assessed as half life measured up to 12 hrs by HPLC analysis; assay type: ADME, tissue-based
[22] = target: T1, Solute carrier family 15 member 1; experiment: Substrate activity at PEPT1 in human Caco-2 cells assessed as fold increase in drug uptake by UPLC-MS/MS analysis relative to its enantiomers; assay type: ADME, cell-based
Mus musculus [23] = experiment: Anti-colitis activity against DSS-induced colitis in C57BL/6 mouse model assessed as fold decrease in disease activity index at 25 mg/kg, po administered via gavage twice daily for 10 days relative to control; assay type: functional; conditions: time 10 day
Jejunum = experiment: Effective permeability in Sprague-Dawley rat jejunum assessed as fold increase in permeability at 5 mM measured up to 60 mins by HPLC analysis relative to its enantiomers; assay type: ADME, tissue-based; conditions: 1 h, 5000 µM
[24] = Apparent permeability across apical to basolateral side in human Caco-2 cells assessed as fold increase in permeability at 0.5 mM measured up to 60 mins by UPLC-MS/MS analysis relative to its enantiomers; assay type: ADME, cell-based; conditions: caco-2, 1 h, 500 µM
[25] = target: T1, Solute carrier family 15 member 1; experiment: Substrate activity at PEPT1 in human Caco-2 cells assessed as fold reduction in drug uptake in presence of Gly-Sar by UPLC-MS/MS analysis relative to its enantiomers; assay type: ADME, cell-based
[26] = target: T2, Solute carrier family 15 member 1 (Rattus norvegicus, UniProt P51574); experiment: Substrate activity in PEPT1 in Sprague-Dawley rat jejunum assessed as fold increase in effective permeability at 5 mM measured up to 60 mins in presence of Gly-Sar by HPLC analysis relative to its enantiomers; assay type: ADME, tissue-based; conditions: 1 h, 5000 µM
T2 sequence (P51574 whole entry): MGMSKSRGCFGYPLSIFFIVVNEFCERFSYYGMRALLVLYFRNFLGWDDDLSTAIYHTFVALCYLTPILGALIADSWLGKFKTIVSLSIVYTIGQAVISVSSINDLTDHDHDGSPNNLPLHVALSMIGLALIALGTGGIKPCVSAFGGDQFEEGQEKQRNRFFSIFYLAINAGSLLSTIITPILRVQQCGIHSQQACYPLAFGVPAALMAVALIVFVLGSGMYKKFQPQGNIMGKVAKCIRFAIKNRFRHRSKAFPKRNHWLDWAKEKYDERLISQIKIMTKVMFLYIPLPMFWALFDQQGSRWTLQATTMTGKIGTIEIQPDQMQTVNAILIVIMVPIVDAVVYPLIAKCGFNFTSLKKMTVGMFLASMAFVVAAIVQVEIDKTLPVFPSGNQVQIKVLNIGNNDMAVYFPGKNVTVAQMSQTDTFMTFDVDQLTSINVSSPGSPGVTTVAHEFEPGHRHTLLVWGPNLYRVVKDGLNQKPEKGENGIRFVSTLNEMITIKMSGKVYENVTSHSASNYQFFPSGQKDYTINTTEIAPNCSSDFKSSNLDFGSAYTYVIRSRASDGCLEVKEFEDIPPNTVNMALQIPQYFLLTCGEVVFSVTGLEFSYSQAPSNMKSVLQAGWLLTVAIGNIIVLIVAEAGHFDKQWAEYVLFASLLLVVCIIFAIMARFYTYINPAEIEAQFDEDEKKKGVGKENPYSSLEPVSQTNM

half-life [1]	half-life [2]	AUC [4]	half-life [5]	half-life [6]	half-life [7]	Tmax [8]	half-life [9]	half-life [10]	half-life [11]	Cmax [12]	half-life [14]	half-life [15]	half-life [16]	half-life [17]	half-life [18]	half-life [19]	half-life [21]	Compound	Activity (Mus musculus [3])	Activity (Mus musculus [20])	other results
> 12 h	> 12 h	49.92 microM/L.hr	> 12 h	> 12 h	> 12 h	4 h	> 12 h	> 12 h	> 12 h	22.1 µM	> 12 h	> 12 h	> 12 h	> 12 h	> 12 h	> 12 h	> 12 h	O=C(N[C@H](CO)C(=O)O)[C@@H]1C[C@H](O)CN1	inactive	inactive	inhibition (INH) [13]: Not Active
> 12 h	> 12 h	50.73 microM/L.hr	> 12 h	> 12 h	> 12 h	4 h	> 12 h	> 12 h	> 12 h	22.9 µM	> 12 h	> 12 h	> 12 h	> 12 h	> 12 h	> 12 h	> 12 h	O=C(O)[C@@H](CO)NC(=O)[C@H]1C[C@H](O)CN1	Active	Active	fold change (FC) [22]: 3.3; fold change (FC) (Mus musculus [23]): 1.5; inhibition (INH) [13]: Not Active
> 12 h	> 12 h	8.55 microM/L.hr	> 12 h	> 12 h	> 12 h	2 h	> 12 h	> 12 h	> 12 h	4.01 µM	> 12 h	> 12 h	> 12 h	> 12 h	> 12 h	> 12 h	> 12 h	O=C(O)[C@H](CO)NC(=O)[C@H]1C[C@H](O)CN1	inactive	inactive	fold change (FC) [22]: 3.3; fold change (FC) (Jejunum): 7.3; fold change (FC) [24]: 6.3; IC50 [13]: 9.6 mM; fold change (FC) [25]: 3.4; fold change (FC) [26]: 6.2
0.99 h	> 12 h	1.67 microM/L.hr	0.32 h	> 12 h	> 12 h	2 h	0.39 h	> 12 h	> 12 h	0.64 µM	0.33 h	> 12 h	0.91 h	> 12 h	> 12 h	> 12 h	> 12 h	O=C(N[C@H](CO)C(=O)O)[C@@H]1C[C@@H](O)CN1	Active	Active	fold change (FC) [22]: 3.3; fold change (FC) (Jejunum): 7.3; fold change (FC) [24]: 6.3; fold change (FC) (Mus musculus [23]): 1.5; IC50 [13]: 10.2 mM; fold change (FC) [25]: 3.4; fold change (FC) [26]: 4.6
> 12 h	> 12 h	44.55 microM/L.hr	> 12 h	> 12 h	> 12 h	4 h	> 12 h	> 12 h	> 12 h	22.7 µM	> 12 h	> 12 h	> 12 h	> 12 h	> 12 h	> 12 h	> 12 h	O=C(O)[C@H](CO)NC(=O)[C@H]1C[C@@H](O)CN1	inactive	inactive	inhibition (INH) [13]: Not Active
1.15 h	> 12 h	1.62 microM/L.hr	0.51 h	> 12 h	> 12 h	2 h	0.35 h	> 12 h	> 12 h	1.05 µM	0.39 h	> 12 h	1.22 h	> 12 h	> 12 h	> 12 h	> 12 h	O=C(O)[C@H](CO)NC(=O)[C@@H]1C[C@H](O)CN1	inactive	inactive	fold change (FC) [22]: 3.3; fold change (FC) (Jejunum): 7.3; fold change (FC) [24]: 6.3; IC50 [13]: 9.8 mM; fold change (FC) [25]: 3.4; fold change (FC) [26]: 4
0.88 h	> 12 h	1.34 microM/L.hr	0.27 h	> 12 h	> 12 h	2 h	0.29 h	> 12 h	> 12 h	0.52 µM	0.35 h	> 12 h	0.86 h	> 12 h	> 12 h	> 12 h	> 12 h	O=C(O)[C@H](CO)NC(=O)[C@@H]1C[C@@H](O)CN1	Active	Active	fold change (FC) [22]: 3.3; fold change (FC) (Jejunum): 7.3; fold change (FC) [24]: 6.3; fold change (FC) (Mus musculus [23]): 1.5; IC50 [13]: 5.18 mM; fold change (FC) [25]: 3.4; fold change (FC) [26]: 7.8
